Key:
[1] = biological target: ACSS2 (Homo sapiens (Human), UniProt Q9NR19); assay: Cellular assay of 14C acetate incorporation into fatty acids (IC50 ACSS2 cellular lipids); assay type: cell-based; conditions: HCT-15 cells
Procedure: Cellular Assay of ^14C Acetate Incorporation into Fatty Acids (IC50 ACSS2 Cellular Lipids)
This protocol describes a cellular assay capable to quantify endogenous fatty acid synthesis activity in the human HCT-15 cancer cell line following the incorporation of extracellularly administered radiolabeled ^14C acetate with a scintillation proximity based read out on extracted fatty acids.
HCT-15 cells were grown in RPMI 1640 (Gibco) supplemented with 2 mM glutamine, 1 mM sodium pyruvate 10 mM HEPES and 10% FCS (heat-inactivated) passaged every 2-3 days to remain a subconfluent, vital culture. A working cell bank was prepared with each aliquot containing 1×10^7 viable cells. After thawing, these cells are dilute immediately 1:20 in pre-warmed (37° C.) culture medium. Cells are collected by centrifugation at 200×g for 5 min, and the supernatant is replaced by 30 mL of fresh culture medium per aliquot to obtain a cell suspension containing 350000 cells/ml. From this cell suspension 100 μL are dispersed into each well of a collagen coated 96 well plate, (black, clear bottom, PS, F-bottom, Greiner) and culture for 24 h (37° C., 5% CO2). After incubation the culture medium is removed and the wells are washed once with 100 μL PBS++(supplemented with Mg^2+/Ca^2+, Gibco) and 50 μL assay medium (RPMI 1640+10 mM HEPES) are added to each well. Compounds serial dilutions are prepared from 10 mM stock solutions in DMSO using a fixed dilution factor (usually 1:3). After preparation of the dilution series in DMSO, the individual dilutions are further diluted in the assay medium. This working dilution is prepared such, that the concentration is 7× of the final concentration in the assay. The maximal DMSO concentration in the final assay is 0.1%.
To each well 10 μL compound working dilution or DMSO blank are added and the cells are cultured for 2 h (37° C., 5% CO2). Then 10 μL AlamarBlue reagent (Invitrogen) containing 14 μCi/mL 14C-acetate (Perkin Elmer) are added to each well (70 μl total volume) and cells are again cultured for 2 h. Cell viability is verified by measuring the AlamarBlue fluorescence (Tecan Safire, ex: 544 nm/em: 590 nm). After incubation the culture medium is removed and the wells are carefully washed once with cold 100 μL PBS++. For cell lysis and fatty acid recovery 50 μl 0.1 M NaOH and 0.1% Triton-X100 are added per well. The plate is sealed with PlateLoc (clear peelable heat seal, Agilent) and incubate at 70° C. for 16-24 h. After cooling to room temperature, the plates are centrifuged for 1 min at 1000 rpm and the plate seals are removed. For acidification 150 μL 0.1 M HCl are added to each well, mixed and 150 μL of the mixture are transferred into a 96 well FlashPlate (Perkin Elmer). The plates are sealed with TopSeal-A (Perkin Elmer). To allow for the fatty acid binding to the well surfaces the plates are incubate for 4 h at 70° C. After cooling to room temperature, the plates are centrifuged for 1 min at 1000 rpm and stored for 0.5-2h at room temperature in the dark. Radioactivity from ^14C incorporation into fatty acids in the wells is measured as CPM count in a MicroBeta scintillation counter (Perkin Elmer).

[2] = test system: CHO-K1 cells; assay: Micronucleus assay (MNT) in vitro; assay type: cell-based; design: key: A: negative, putative negative (micronuclei detected beyond threshold of 60% cyctotoxicity); B: positive; conditions: 24 hrs treatment, 0.2 μM to 100 μM
Procedure: The in vitro MNT assay is performed in CHO-K1 cells due to their stable and well-characterized karyotype, high sensitivity and suitability for a high content imaging approach. They have a basal spontaneous micronucleus frequency of 3-4%.
24 hrs after plating CHO-K1 cells are treated with test compounds for 24 hrs (in duplicates; fixed concentration ranges from 0.2 μM to 100 μM in 2-fold dilution steps). After a medium change cells are incubated for 24 hrs with Cytochalasin B to block cytokinesis and are then fixed and nuclei/micronuclei visualized with a DNA stain. Images are acquired with the Molecular Devices high content imagers IXU or IXM and are analyzed with the dedicated MetaXpress software micronucleus module. Criteria for scoring of micronuclei (MN) are the following: • diameter of the MN should be less than ⅓ of the main nucleus • MN should be separated from or marginally overlap with main nucleus (=no blebs) • MN should have similar staining as the main nucleus
At least 1000 binucleated cells are evaluated per treatment replicate. Mitomycin C is used as reference stimulator of micronucleus formation. Cytotoxicity is evaluated in parallel and defined by comparing total nuclei count in compound-treated samples to neutral control samples treated with vehicle only (1% DMSO) (100% cytotoxicity means all cells are dead or lost).
A test compound is regarded as POSITIVE if generation of micronuclei and exhibition of less than 60% cytotoxicity at the same concentration can be observed.
Compounds are scored only in the soluble concentration range.
Experimental data of the compounds shown in Table 1 in the MNT assay are shown in Table 2 below and classified in the following groups: […]

Chain of ACSS2 (Q9NR19 whole entry): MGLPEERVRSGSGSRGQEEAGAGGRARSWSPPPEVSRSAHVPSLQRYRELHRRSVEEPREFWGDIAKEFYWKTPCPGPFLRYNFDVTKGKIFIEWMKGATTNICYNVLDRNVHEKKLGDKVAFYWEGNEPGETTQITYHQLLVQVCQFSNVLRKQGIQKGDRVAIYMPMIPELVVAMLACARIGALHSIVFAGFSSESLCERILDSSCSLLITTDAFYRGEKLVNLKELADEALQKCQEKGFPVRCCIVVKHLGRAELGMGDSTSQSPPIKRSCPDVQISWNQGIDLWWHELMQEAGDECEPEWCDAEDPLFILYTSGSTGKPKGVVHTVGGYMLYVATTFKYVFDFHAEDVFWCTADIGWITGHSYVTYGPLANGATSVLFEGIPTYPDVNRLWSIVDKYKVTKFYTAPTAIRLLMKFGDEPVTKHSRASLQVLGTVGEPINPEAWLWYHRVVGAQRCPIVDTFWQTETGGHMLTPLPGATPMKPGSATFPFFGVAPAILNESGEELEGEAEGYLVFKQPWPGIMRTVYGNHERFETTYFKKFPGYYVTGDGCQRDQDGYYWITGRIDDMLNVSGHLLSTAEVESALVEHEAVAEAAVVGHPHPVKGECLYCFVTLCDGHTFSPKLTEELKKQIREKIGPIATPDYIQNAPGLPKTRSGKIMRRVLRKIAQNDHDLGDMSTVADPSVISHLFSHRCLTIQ

In the case of `CCc1c(C(O)(c2ccccc2)c2ccccc2)nc2cc(F)c(-c3nnn[nH]3)cn12` [Compound 3, [3-Ethyl-7-fluoro-6-(1H-tetrazol-5-yl)-imidazo[1,2-a]pyridin-2-yl]-diphenyl-methanol], the IC50 [1] is reported as 10 to 100 nM and the MNT [2] is reported as “A”.
`CCn1c(C(O)(c2ccccc2)c2cccs2)nc2nc(OC)c(-c3nnn[nH]3)cc21` (racemic) [Compound 35, [1-ethyl-5-methoxy-6-(1H-1,2,3,4-tetrazol-5-yl)-1H-imidazo[4,5-b]pyridin-2-yl](phenyl)(thiophen-2-yl)methanol] was tested, and the IC50 [1] was 0.01 to 1 nM and the MNT [2] was “A”.
For `CCn1c(C(O)(c2ccccc2F)c2ccccc2F)nc2nc(C)c(-c3nnn[nH]3)cc21` [Compound 59, [1-ethyl-5-methyl-6-(1H-1,2,3,4-tetrazol-5-yl)-1H-imidazo[4,5-b]pyridin-2-yl]bis(2-fluorophenyl)methanol], the IC50 [1] was 10 to 100 nM and the MNT [2] was “A”.
For `CCn1c(C(O)(c2ccccc2)c2ccccc2)nc2nc(Cl)c(-c3nnn[nH]3)cc21` [Compound 51, [5-chloro-1-ethyl-6-(1H-1,2,3,4-tetrazol-5-yl)-1H-imidazo[4,5-b]pyridin-2-yl]diphenylmethanol], the IC50 [1] was 10 to 100 nM and the MNT [2] was “A”.
For `CCc1c(C(O)(c2ccccc2)c2ccccc2)nc2cc(OC)c(-c3nnn[nH]3)cn12` [Compound 2, [3-Ethyl-7-methoxy-6-(1H-tetrazol-5-yl)-imidazo[1,2-a]pyridin-2-yl]-diphenyl-methanol], the IC50 [1] was 1 to 10 nM and the MNT [2] was “A”.
`CCc1c(C(O)(c2ccccc2F)c2ccccc2F)nc2cc(Cl)c(-c3nnn[nH]3)cn12` [Compound 5, [7-Chloro-3-ethyl-6-(1H-tetrazol-5-yl)-imidazo[1,2-a]pyridin-2-yl]-bis-(2-fluoro-phenyl)-methanol] was tested, and the IC50 [1] was 10 to 100 nM and the MNT [2] was “A”.
For `CCc1c(C(O)(c2ccccc2)c2ccccc2)nn2cc(Cl)c(-c3nnn[nH]3)cc12` [Compound 21, [6-Chloro-3-ethyl-5-(1H-tetrazol-5-yl)-pyrazolo[1,5-a]pyridin-2-yl]-diphenyl-methanol], the IC50 [1] was 1 to 10 nM and the MNT [2] was “A”.
In the case of `CCn1c(C(O)(c2cccs2)c2cccs2)nc2nc(OC)c(-c3nnn[nH]3)cc21` [Compound 38, [1-ethyl-5-methoxy-6-(1H-1,2,3,4-tetrazol-5-yl)-1H-imidazo[4,5-b]pyridin-2-yl]bis(thiophen-2-yl)methanol], the IC50 [1] is reported as 10 to 100 nM and the MNT [2] is reported as “A”.
In the case of `CCn1c(C(O)(c2ccccc2)c2ccccn2)nc2nc(OC)c(-c3nnn[nH]3)cc21` (racemic) [Compound 50, [1-ethyl-5-methoxy-6-(1H-1,2,3,4-tetrazol-5-yl)-1H-imidazo[4,5-b]pyridin-2-yl](phenyl)(pyridin-2-yl)methanol], the IC50 [1] is reported as 0.01 to 1 nM and the MNT [2] is reported as “A”.
In the case of `COc1nc2nc(C(O)(c3ccccc3)c3ccccc3)n(CCO)c2cc1-c1nnn[nH]1` [Compound 34, 2-[2-(hydroxy-diphenylmethyl)-5-methoxy-6-(1H-1,2,3,4-tetrazol-5-yl)-1H-imidazo[4,5-b]pyridin-1-yl]ethan-1-ol], the IC50 [1] is reported as 10 to 100 nM and the MNT [2] is reported as “A”.
With `CCc1c(C(O)(c2ccccc2F)c2ccccc2F)nc2cc(OC)c(-c3nnn[nH]3)cn12` [Compound 6, [3-Ethyl-7-methoxy-6-(1H-tetrazol-5-yl)-imidazo[1,2-a]pyridin-2-yl]-bis-(2-fluoro-phenyl)-methanol] the IC50 [1] was 1 to 10 nM and the MNT [2] was “A”.
`CCc1c(C(O)(c2ccccc2)c2ccccc2)nc2cc(Cl)c(-c3nnn[nH]3)cn12` [Compound 9, [7-Chloro-3-ethyl-6-(1H-tetrazol-5-yl)-imidazo[1,2-a]pyridin-2-yl]-diphenyl-methanol] was tested, and the IC50 [1] was 1 to 10 nM and the MNT [2] was “A”.
For `CCc1c(C(O)(c2ccccc2)c2ccccc2)nn2cc(OC)c(-c3nnn[nH]3)cc12` [Compound 22, [3-Ethyl-6-methoxy-5-(1H-tetrazol-5-yl)-pyrazolo[1,5-a]pyridin-2-yl]-diphenyl-methanol], the IC50 [1] was 1 to 10 nM and the MNT [2] was “A”.
For `CCn1c(C(O)(c2ccccc2)c2ccccc2)nc2nc(C)c(-c3nnn[nH]3)cc21` [Compound 62, [1-ethyl-5-methyl-6-(1H-1,2,3,4-tetrazol-5-yl)-1H-imidazo[4,5-b]pyridin-2-yl]diphenylmethanol], the IC50 [1] was 100 to 10000 nM and the MNT [2] was “A”.
`CCc1c(C(O)(c2ccccc2F)c2ccccc2F)nn2cc(OC)c(-c3nnn[nH]3)cc12` [Compound 19, [3-Ethyl-6-methoxy-5-(1H-tetrazol-5-yl)-pyrazolo[1,5-a]pyridin-2-yl]-bis-(2-fluoro-phenyl)-methanol] was tested, and the IC50 [1] was 1 to 10 nM and the MNT [2] was “A”.
For `CCc1c(C(O)(c2ccccc2)c2ccccn2)nc2cc(OC)c(-c3nnn[nH]3)cn12` (single isomer, unassigned) [Compound 11, [3-Ethyl-7-methoxy-6-(1H-tetrazol-5-yl)-imidazo[1,2-a]pyridin-2-yl]-phenyl-pyridin-2-yl-methanol], the IC50 [1] was 1 to 10 nM and the MNT [2] was “A”.
For `CCn1c(C(O)(c2ccccc2F)c2ccccc2F)nc2nc(OC)c(-c3nnn[nH]3)cc21` [Compound 57, [1-ethyl-5-methoxy-6-(1H-1,2,3,4-tetrazol-5-yl)-1H-imidazo[4,5-b]pyridin-2-yl]bis(2-fluorophenyl)methanol], the IC50 [1] was 0.01 to 1 nM and the MNT [2] was “A”.
In the case of `CCc1c(C(O)(c2ccccc2)c2ccccc2)nc2ccc(-c3nnn[nH]3)cn12` [Compound 4, [3-Ethyl-6-(1 H-tetrazol-5-yl)-imidazo[1,2-a]pyridin-2-yl]-diphenyl-methanol], the IC50 [1] is reported as 10 to 100 nM and the MNT [2] is reported as “A”.
`CCn1c(C(O)(c2ccccc2)c2ncccn2)nc2nc(OC)c(-c3nnn[nH]3)cc21` (racemic) [Compound 37, [1-ethyl-5-methoxy-6-(1H-1,2,3,4-tetrazol-5-yl)-1H-imidazo[4,5-b]pyridin-2-yl](phenyl)(pyrimidin-2-yl)methanol] was tested, and the IC50 [1] was 1 to 10 nM and the MNT [2] was “A”.
For `CCn1c(C(O)(c2ccccc2)c2ccccn2)nc2nc(OC)c(-c3nnn[nH]3)cc21` (single isomer, unassigned) [Compound 40, [1-ethyl-5-methoxy-6-(1H-1,2,3,4-tetrazol-5-yl)-1H-imidazo[4,5-b]pyridin-2-yl](phenyl)(pyridin-2-yl)methanol], the IC50 [1] was 1 to 10 nM and the MNT [2] was “A”.
In the case of `CCn1c(C(O)(c2ccccc2)c2ccccc2)nc2ncc(-c3nnn[nH]3)cc21` [Compound 60, [1-ethyl-6-(1H-1,2,3,4-tetrazol-5-yl)-1H-imidazo[4,5-b]pyridin-2-yl]diphenylmethanol], the IC50 [1] is reported as 100 to 10000 nM and the MNT [2] is reported as “A”.
In the case of `CCn1c(C(O)(c2ccccc2)c2ccccc2)nc2ccc(C(=O)NC[C@@H](C)O)cc21` [Reference Compound, 3-Ethyl-2-[hydroxy(diphenyl)methyl]-N-[(2R)-2-hydroxypropyl]benzimidazole-5-carboxamide, reference compound], the IC50 [1] is reported as 1 to 10 nM and the MNT [2] is reported as “B”.
`CCn1c(C(O)(c2ccccc2)c2ccccc2)nc2nc(OC)c(-c3nnn[nH]3)cc21` [Compound 58, [1-ethyl-5-methoxy-6-(1H-1,2,3,4-tetrazol-5-yl)-1H-imidazo[4,5-b]pyridin-2-yl]diphenylmethanol] was tested, and the IC50 [1] was 0.01 to 1 nM and the MNT [2] was “A”.

Reference: patent US20240009175A9, “TETRAZOLE DERIVATIVES” (Merck Patent GmbH, priority 2020, published 2024)
